Here are results for 11 molecules from ChEMBL document CHEMBL5385848, “Discovery of novel hydroxyamidine based indoleamine 2,3-dioxygenase 1 (IDO1) and thioredoxin reductase 1 (TrxR1) dual inhibitors” (Eur J Med Chem, 2023).

In general, IC50 refers to the midpoint of a concentration-inhibition curve.

In series [1] the target is T1, Thioredoxin reductase 1, cytoplasmic (Homo sapiens) (UniProt Q16881).
T1 sequence (whole entry): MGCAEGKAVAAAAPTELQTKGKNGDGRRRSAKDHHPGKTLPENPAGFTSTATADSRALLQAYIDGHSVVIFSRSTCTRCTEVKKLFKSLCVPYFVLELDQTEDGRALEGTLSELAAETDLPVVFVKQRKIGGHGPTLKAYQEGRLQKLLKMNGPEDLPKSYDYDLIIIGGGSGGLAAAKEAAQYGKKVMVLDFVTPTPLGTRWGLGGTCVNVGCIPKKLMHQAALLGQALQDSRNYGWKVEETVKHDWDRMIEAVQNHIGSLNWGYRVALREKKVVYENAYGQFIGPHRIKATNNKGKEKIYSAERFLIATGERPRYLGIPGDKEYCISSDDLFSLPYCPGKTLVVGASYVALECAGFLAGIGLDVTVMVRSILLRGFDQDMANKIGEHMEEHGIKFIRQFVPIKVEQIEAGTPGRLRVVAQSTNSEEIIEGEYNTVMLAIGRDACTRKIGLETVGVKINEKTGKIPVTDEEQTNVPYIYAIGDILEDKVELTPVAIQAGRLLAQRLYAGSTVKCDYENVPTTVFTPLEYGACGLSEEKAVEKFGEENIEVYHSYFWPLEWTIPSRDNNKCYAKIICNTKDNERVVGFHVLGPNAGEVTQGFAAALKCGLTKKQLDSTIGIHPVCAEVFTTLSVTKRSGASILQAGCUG
Nature of the series: Inhibition of TrxR1 in human HeLa cells incubated for 24 hrs. It is filed as cell-based.

The target of series [2] is T1, Thioredoxin reductase 1, cytoplasmic (Homo sapiens). Nature of the series: Inhibition of TrxR1 in human HCT-116 cells incubated for 24 hrs. It is filed as cell-based.
Series [3] concerns the target T2, Thioredoxin reductase 1, cytoplasmic (Mus musculus) (UniProt Q9JMH6).
T2 sequence (whole entry): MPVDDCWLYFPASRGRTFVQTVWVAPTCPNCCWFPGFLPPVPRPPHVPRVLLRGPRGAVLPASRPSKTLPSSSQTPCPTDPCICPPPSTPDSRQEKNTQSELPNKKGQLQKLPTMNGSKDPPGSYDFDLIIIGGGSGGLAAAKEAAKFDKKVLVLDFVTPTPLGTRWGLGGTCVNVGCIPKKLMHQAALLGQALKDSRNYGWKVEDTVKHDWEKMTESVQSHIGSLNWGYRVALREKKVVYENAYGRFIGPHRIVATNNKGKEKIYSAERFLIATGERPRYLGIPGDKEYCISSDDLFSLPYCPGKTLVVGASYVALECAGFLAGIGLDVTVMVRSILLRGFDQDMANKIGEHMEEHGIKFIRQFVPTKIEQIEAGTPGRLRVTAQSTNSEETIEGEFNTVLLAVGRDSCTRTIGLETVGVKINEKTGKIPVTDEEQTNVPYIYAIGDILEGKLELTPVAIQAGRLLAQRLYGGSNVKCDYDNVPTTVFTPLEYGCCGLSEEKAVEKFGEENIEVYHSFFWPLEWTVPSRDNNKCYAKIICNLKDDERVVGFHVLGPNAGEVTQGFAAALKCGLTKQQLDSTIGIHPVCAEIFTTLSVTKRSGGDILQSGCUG
Nature of the series: Inhibition of TrxR1 in mouse CT26 cells incubated for 24 hrs. It is filed as cell-based.

The target of series [4] is Indoleamine 2,3-dioxygenase 1 (Mus musculus) (UniProt P28776). Nature of the series: In vivo inhibition of IDO1 in C57BL/6 mouse assessed as reduction in plasma Kyn level at 60 mg/kg, po administered once daily by LC-MS/MS analysis. It is filed as functional, organism-based.
Series [5] shares this target. Nature of the series: In vivo inhibition of IDO1 in C57BL/6 mouse assessed as increase in plasma Trp level at 60 mg/kg, po administered once daily by LC-MS/MS analysis. The series is classed as functional, organism-based.
For series [6] the target is unchanged. Nature of the series: In vivo inhibition of IDO1 in C57BL/6 mouse assessed as reduction in plasma Kyn/Trp ratio at 60 mg/kg, po administered once daily by LC-MS/MS analysis. It is filed as functional, organism-based.
Series [7] concerns CT26. Briefly: Antitumor activity against mouse CT26 cells implanted in […] BALB/c mouse assessed as increase in CD8 T lymphocytes at 60 mg/kg, ig administered daily for 28 days and measured every 4 days. It is filed as functional, organism-based. Conditions: time 28.0 day.
Series [8] deals with CT26. Briefly: Antitumor activity against mouse CT26 cells implanted in […] BALB/c mouse assessed as increase in CD4 Th lymphocytes at 60 mg/kg, ig administered daily for 28 days and measured every 4 days. The conditions noted are these: time 28.0 day. The series is classed as functional, organism-based.
Series [9] has as its system CT26. Briefly: Antitumor activity against mouse CT26 cells implanted in athymic nude BALB/c mouse assessed as reduction in CD4+CD25+Foxp3+ lymphocytes at 60 mg/kg, ig administered daily for 28 days and measured every 4 days by immunofluorescence analysis. The conditions noted are these: time 28.0 day. It is filed as functional, organism-based.
In series [10] the test system is CT26. Briefly: Antitumor activity against mouse CT26 cells implanted in […] BALB/c mouse assessed as reduction in nTreg lymphocytes at 60 mg/kg, ig administered daily for 28 days and measured every 4 days by immunofluorescence analysis. It is filed as functional, organism-based. Conditions: time 28.0 day.
For series [11], the system named is CT26. Nature of the series: Antitumor activity against mouse CT26 cells implanted in athymic nude BALB/c mouse assessed as reduction in proliferative nTreg lymphocytes at 60 mg/kg, ig administered daily for 28 days and measured every 4 days by immunofluorescence analysis. The conditions noted are these: time 28.0 day. The series is classed as functional, organism-based.

In series [12] the target is T3, Thioredoxin reductase 1, cytoplasmic (Rattus norvegicus, UniProt O89049).
T3 sequence (O89049 whole entry): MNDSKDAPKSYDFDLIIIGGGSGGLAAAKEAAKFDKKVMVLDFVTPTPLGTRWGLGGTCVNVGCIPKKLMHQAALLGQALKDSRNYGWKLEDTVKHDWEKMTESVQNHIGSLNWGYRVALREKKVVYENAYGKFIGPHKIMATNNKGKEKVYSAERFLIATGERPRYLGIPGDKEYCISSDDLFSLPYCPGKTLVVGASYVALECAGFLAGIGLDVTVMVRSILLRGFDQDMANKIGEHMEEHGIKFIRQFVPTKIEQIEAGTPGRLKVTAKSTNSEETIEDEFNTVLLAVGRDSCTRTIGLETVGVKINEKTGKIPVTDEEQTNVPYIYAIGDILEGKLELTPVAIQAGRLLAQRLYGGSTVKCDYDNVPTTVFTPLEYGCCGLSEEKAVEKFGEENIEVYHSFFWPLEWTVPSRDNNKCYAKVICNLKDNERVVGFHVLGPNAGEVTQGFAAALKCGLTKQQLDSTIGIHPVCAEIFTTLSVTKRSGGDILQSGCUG
Nature of the series: Inhibition of recombinant rat TrxR1 incubated for 1 hr in presence of NADPH by microplate reader analysis.

Series [13] concerns HCT-116. Briefly: Antiproliferative activity against human HCT-116 cells assessed as cell growth inhibition incubated for 48 hrs by CCK-8 assay. Conditions: HCT-116, 48 h. It is filed as functional, cell-based.
The target in series [14] is Indoleamine 2,3-dioxygenase 1 (Homo sapiens, UniProt P14902). Nature of the series: Inhibition of recombinant human IDO1 using L-Trp as substrate incubated for 1 hr.
Series [15] in a line: Cytotoxicity against human HeLa cells incubated for 48 hrs by CCK-8 assay. The series is classed as toxicity, cell-based. (Tetrazolium dyes change colour on reduction, which living cells bring about.)
The nature of series [16]: Cytotoxicity against mouse CT26 cells incubated for 48 hrs by CCK-8 assay. It is filed as toxicity, cell-based.
Series [17] is described as follows: Cytotoxicity against human HCT-116 cells incubated for 48 hrs by CCK-8 assay. It is filed as toxicity, cell-based.
For series [18], the target named is T4, Indoleamine 2,3-dioxygenase 2 (Homo sapiens, UniProt Q6ZQW0).
T4 sequence (Q6ZQW0 whole entry): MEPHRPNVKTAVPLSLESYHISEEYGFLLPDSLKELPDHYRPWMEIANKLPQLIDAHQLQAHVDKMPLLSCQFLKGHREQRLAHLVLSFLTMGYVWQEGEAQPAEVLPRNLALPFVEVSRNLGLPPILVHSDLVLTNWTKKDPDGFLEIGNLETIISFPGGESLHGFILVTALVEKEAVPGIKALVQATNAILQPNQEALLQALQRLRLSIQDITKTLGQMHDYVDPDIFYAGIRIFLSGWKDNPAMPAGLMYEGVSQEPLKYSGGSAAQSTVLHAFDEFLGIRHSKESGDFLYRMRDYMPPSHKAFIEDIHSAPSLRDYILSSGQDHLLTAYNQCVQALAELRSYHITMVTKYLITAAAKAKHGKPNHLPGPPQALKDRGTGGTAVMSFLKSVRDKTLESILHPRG
Nature of the series: Inhibition of IDO2 (unknown origin) using D-Trp as substrate incubated for 1 hr.

A short description of series [19]: Toxicity in athymic nude BALB/c mouse assessed as weight gain at 60 mg/kg, ig administered daily for 28 days and measured every 4 days. The series is classed as organism-based. The conditions noted are these: in vivo, po, 672 h, time 28 day.

The source made the active and inactive calls. The rule behind the calls is not given here.

Indoleamine 2,3-dioxygenase 1 (Mus musculus), sequence (P28776 whole entry, looked up): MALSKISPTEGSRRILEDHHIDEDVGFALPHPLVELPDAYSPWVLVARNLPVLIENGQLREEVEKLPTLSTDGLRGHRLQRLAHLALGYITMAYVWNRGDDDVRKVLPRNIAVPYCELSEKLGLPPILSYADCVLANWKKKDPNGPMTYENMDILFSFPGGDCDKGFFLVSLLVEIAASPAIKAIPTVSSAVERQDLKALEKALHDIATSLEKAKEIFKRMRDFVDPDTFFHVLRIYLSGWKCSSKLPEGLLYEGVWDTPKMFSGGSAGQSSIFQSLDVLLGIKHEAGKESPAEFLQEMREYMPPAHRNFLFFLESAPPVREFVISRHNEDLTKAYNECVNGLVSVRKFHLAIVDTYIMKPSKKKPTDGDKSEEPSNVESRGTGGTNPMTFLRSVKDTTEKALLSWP
Indoleamine 2,3-dioxygenase 1, sequence (P14902 whole entry): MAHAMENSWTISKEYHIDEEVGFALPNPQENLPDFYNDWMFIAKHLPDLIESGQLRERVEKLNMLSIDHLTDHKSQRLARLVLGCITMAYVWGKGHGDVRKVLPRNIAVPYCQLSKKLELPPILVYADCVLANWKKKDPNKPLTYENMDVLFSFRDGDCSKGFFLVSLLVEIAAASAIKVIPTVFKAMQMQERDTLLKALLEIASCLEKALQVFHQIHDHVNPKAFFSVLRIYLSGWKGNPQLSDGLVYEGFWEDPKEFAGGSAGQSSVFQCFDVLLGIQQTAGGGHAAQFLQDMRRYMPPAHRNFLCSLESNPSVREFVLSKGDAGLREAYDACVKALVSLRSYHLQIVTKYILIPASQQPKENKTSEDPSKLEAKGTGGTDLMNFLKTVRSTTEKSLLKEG

Regarding `NS(=O)(=O)NCCNc1nonc1/C(=N/O)Nc1ccc(F)c(Br)c1`, the inhibition result in series [1], in series [2] and in [3] was “inactive” throughout. In addition, the result in [4], in series [5], in series [6], in series [7], in series [8] and in series [9] was Active. In addition, the outcome in series [10] and in series [11] was Active.

Consider `O=C(Cc1ccccc1)Nc1nnc(CCCNc2nonc2/C(=N\O)NCCc2ccc(Cl)cc2)s1`, for which the IC50 in series [12] turned out to be 6.46 µM; in series [13], 4.65 µM; in series [14], 7.88 µM.

On to `O=C(Cc1ccccc1)Nc1nnc(CCCNc2nonc2/C(=N\O)NCCc2ccc(F)cc2)s1`, for which the values for the IC50 in series [12], in series [13] and in series [14] were 25.2 µM, 5.59 µM and 13.2 µM, respectively.

In the case of `O=C(Cc1cccc(OC(F)(F)F)c1)Nc1nnc(CCCNc2nonc2/C(=N\O)NCCc2ccc(Cl)cc2)s1`, the IC50 came out at 7.63 µM in series [12], 3.79 µM in series [13] and 17.5 µM in series [14].

Regarding `O=C(Cc1ccc(O)cc1)Nc1nnc(CCCNc2nonc2/C(=N\O)NCCc2ccc(Cl)cc2)s1`, the IC50 in series [12] was 1.96 µM; in series [13] it was 4.42 µM; in series [14] it was 10.3 µM.

Turning to `O=C(Cc1ccc(O)cc1)Nc1nnc(CCCNc2nonc2/C(=N\O)NCCc2ccc(F)cc2)s1`, the IC50 turned out to be 13.5 µM in series [12], 5.31 µM in [13] and 4.37 µM in series [14].

Regarding `O=C(Cc1ccccc1)Nc1nnc(CCCNc2nonc2/C(=N\O)Nc2ccc(F)c(Br)c2)s1`, the IC50 in series [12] was determined as 3.74 µM; in series [13], 5.98 µM; in series [14], 0.06 µM.

With `O=C(Cc1ccc(O)cc1)Nc1nnc(CCCNc2nonc2/C(=N\O)NCCc2ccc(Br)cc2)s1`, the IC50 in [12] came out at 18.3 µM; in series [13], 4.62 µM; in series [14], 10.1 µM.

For `O=C(Cc1cccc(OC(F)(F)F)c1)Nc1nnc(CCCNc2nonc2/C(=N\O)Nc2ccc(F)c(Br)c2)s1`, the results for the concentration for half-maximal inhibition (IC50) in series [12], in [13] and in series [14] were 3.69 µM, 5.25 µM and 0.12 µM, respectively.

`NS(=O)(=O)NCCNc1nonc1C(=NO)Nc1ccc(F)c(Br)c1` [EPACADOSTAT]: the 50% inhibitory concentration (IC50) at 48 h in series [15] came to 4.63 µM; in series [16], 1.49 µM; in series [17] it was 0.26 µM. This molecule gave an IC50 in series [18] of 0.63 µM. For the same molecule, the Activity result in series [19] was “Toxic”.

As to `O=C(Cc1cccc(OC(F)(F)F)c1)Nc1nnc(CCCNc2nonc2/C(=N\O)NCCc2ccc(Br)cc2)s1`, the concentration for half-maximal inhibition (IC50) stood at 10.5 µM in series [12], 3.1 µM in [13] and 5.58 µM in [14].
